Experimental data as given in the supplement of paper PMC10307832.

Experiments:
Assay in all cases: relative viability (nuclei count vs DMSO), 5 days (fraction); higher = more cells survive
[1] = tested on: EMC-BAC-2
Procedure, shortened: (§1)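 The day after seeding in 1536-well plates, lung cancer cell lines were treated by pin tool with a single drug, or with a fixed anchor-drug dose together with five library-drug doses (not always all listed) in √10 steps. After 5 days, a combined fix-and-stain solution (final 0.05% Triton X-100, 1% formaldehyde, 1 ug/ml Hoechst) was added. Nuclei counted on 4× images gave relative viability as treated counts over vehicle counts, reported as the median of duplicate plates.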

[2] = tested on: NCI-H1623
Procedure, shortened: as §1

[3] = tested on: NCI-H1395
Procedure, shortened: as §1

[4] = tested on: LCLC-97TM1
Procedure, shortened: as §1

[5] = tested on: HCC-366
Procedure, shortened: as §1

[6] = tested on: HCC-78
Procedure, shortened: as §1

[7] = tested on: IA-LM
Procedure, shortened: as §1

[8] = tested on: Calu-6
Procedure, shortened: as §1

[9] = tested on: A549
Procedure, shortened: as §1

[10] = tested on: NCI-H1703
Procedure, shortened: as §1

[11] = tested on: EBC-1
Procedure, shortened: as §1

[12] = tested on: NCI-H1648
Procedure, shortened: as §1

[13] = tested on: NCI-H1299
Procedure, shortened: as §1

Cc1cn(-c2cc(NC(=O)c3ccc(C)c(Nc4nccc(-c5cccnc5)n4)c3)cc(C(F)(F)F)c2)cn1 [Nilotinib] + CCNC(=O)c1noc(-c2cc(C(C)C)c(O)cc2O)c1-c1ccc(CN2CCOCC2)cc1 [Luminespib] (partner 0.01 µM)
relative viability ([1]; first compound 0.001 µM): 1.09 | relative viability ([1]; first compound 0.003162 µM): 1.36 | relative viability ([1]; first compound 0.01 µM): 1.22 | relative viability ([1]; first compound 0.03162 µM): 1.01 | relative viability ([1]; first compound 0.1 µM): 1.11 | relative viability ([2]; first compound 0.001 µM): 0.43 | relative viability ([2]; first compound 0.003162 µM): 0.516 | relative viability ([2]; first compound 0.01 µM): 0.63 | relative viability ([2]; first compound 0.03162 µM): 0.498 | relative viability ([2]; first compound 0.1 µM): 0.544 | relative viability ([3]; first compound 0.001 µM): 0.713 | relative viability ([3]; first compound 0.003162 µM): 0.39 | relative viability ([3]; first compound 0.01 µM): 0.702 | relative viability ([3]; first compound 0.03162 µM): 0.713 | relative viability ([3]; first compound 0.1 µM): 0.814 | relative viability ([4]; first compound 0.001 µM): 0.795 | relative viability ([4]; first compound 0.003162 µM): 0.868 | relative viability ([4]; first compound 0.01 µM): 0.741 | relative viability ([4]; first compound 0.03162 µM): 0.607 | relative viability ([4]; first compound 0.1 µM): 0.641

Cc1cn(-c2cc(NC(=O)c3ccc(C)c(Nc4nccc(-c5cccnc5)n4)c3)cc(C(F)(F)F)c2)cn1 [Nilotinib] + Cc1nc(Nc2ncc(C(=O)Nc3c(C)cccc3Cl)s2)cc(N2CCN(CCO)CC2)n1 [Dasatinib] (partner 0.075 µM)
relative viability ([1]; first compound 0.001 µM): 0.308 | relative viability ([1]; first compound 0.003162 µM): 0.308 | relative viability ([1]; first compound 0.01 µM): 0.325 | relative viability ([1]; first compound 0.03162 µM): 0.27 | relative viability ([1]; first compound 0.1 µM): 0.296 | relative viability ([2]; first compound 0.001 µM): 0.597 | relative viability ([2]; first compound 0.003162 µM): 0.531 | relative viability ([2]; first compound 0.01 µM): 0.601 | relative viability ([2]; first compound 0.03162 µM): 0.508 | relative viability ([2]; first compound 0.1 µM): 0.408 | relative viability ([3]; first compound 0.001 µM): 0.445 | relative viability ([3]; first compound 0.003162 µM): 0.357 | relative viability ([3]; first compound 0.01 µM): 0.428 | relative viability ([3]; first compound 0.03162 µM): 0.357 | relative viability ([3]; first compound 0.1 µM): 0.333 | relative viability ([5]; first compound 0.001 µM): 0.614 | relative viability ([5]; first compound 0.003162 µM): 0.938 | relative viability ([5]; first compound 0.01 µM): 0.958 | relative viability ([5]; first compound 0.03162 µM): 0.4 | relative viability ([5]; first compound 0.1 µM): 0.181 | relative viability ([6]; first compound 0.001 µM): 0.442 | relative viability ([6]; first compound 0.003162 µM): 0.357 | relative viability ([6]; first compound 0.01 µM): 0.404 | relative viability ([6]; first compound 0.03162 µM): 0.252 | relative viability ([6]; first compound 0.1 µM): 0.268 | relative viability ([4]; first compound 0.001 µM): 0.855 | relative viability ([4]; first compound 0.003162 µM): 0.896 | relative viability ([4]; first compound 0.01 µM): 0.971 | relative viability ([4]; first compound 0.03162 µM): 0.654 | relative viability ([4]; first compound 0.1 µM): 0.617

Cc1cn(-c2cc(NC(=O)c3ccc(C)c(Nc4nccc(-c5cccnc5)n4)c3)cc(C(F)(F)F)c2)cn1 [Nilotinib] + O=C(c1cc(Cc2n[nH]c(=O)c3ccccc23)ccc1F)N1CCN(C(=O)C2CC2)CC1 [Olaparib] (partner 8 µM)
relative viability ([1]; first compound 0.001 µM): 0.43 | relative viability ([1]; first compound 0.003162 µM): 0.448 | relative viability ([1]; first compound 0.01 µM): 0.49 | relative viability ([1]; first compound 0.03162 µM): 0.497 | relative viability ([1]; first compound 0.1 µM): 0.521 | relative viability ([3]; first compound 0.001 µM): 0.472 | relative viability ([3]; first compound 0.01 µM): 0.473 | relative viability ([3]; first compound 0.03162 µM): 0.493 | relative viability ([3]; first compound 0.1 µM): 0.455 | relative viability ([7]; first compound 0.001 µM): 0.659 | relative viability ([7]; first compound 0.003162 µM): 0.864 | relative viability ([7]; first compound 0.01 µM): 0.758 | relative viability ([7]; first compound 0.03162 µM): 0.664 | relative viability ([7]; first compound 0.1 µM): 0.777 | relative viability ([8]; first compound 0.001 µM): 0.525 | relative viability ([8]; first compound 0.003162 µM): 0.693 | relative viability ([8]; first compound 0.01 µM): 0.583 | relative viability ([8]; first compound 0.03162 µM): 0.409 | relative viability ([8]; first compound 0.1 µM): 0.494 | relative viability ([5]; first compound 0.001 µM): 0.272 | relative viability ([5]; first compound 0.003162 µM): 0.327 | relative viability ([5]; first compound 0.01 µM): 0.339 | relative viability ([5]; first compound 0.03162 µM): 0.281 | relative viability ([5]; first compound 0.1 µM): 0.281 | relative viability ([9]; first compound 0.001 µM): 0.249 | relative viability ([9]; first compound 0.003162 µM): 0.377 | relative viability ([9]; first compound 0.01 µM): 0.334 | relative viability ([9]; first compound 0.03162 µM): 0.241 | relative viability ([9]; first compound 0.1 µM): 0.117 | relative viability ([10]; first compound 0.001 µM): 0.302 | relative viability ([10]; first compound 0.003162 µM): 0.201 | relative viability ([10]; first compound 0.01 µM): 0.234 | relative viability ([10]; first compound 0.03162 µM): 0.174 | relative viability ([10]; first compound 0.1 µM): 0.212 | relative viability ([6]; first compound 0.001 µM): 0.748 | relative viability ([6]; first compound 0.003162 µM): 0.602 | relative viability ([6]; first compound 0.01 µM): 0.877 | relative viability ([6]; first compound 0.03162 µM): 0.768 | relative viability ([6]; first compound 0.1 µM): 0.752 | relative viability ([11]; first compound 0.001 µM): 0.67 | relative viability ([11]; first compound 0.003162 µM): 0.804 | relative viability ([11]; first compound 0.01 µM): 0.755 | relative viability ([11]; first compound 0.03162 µM): 0.661 | relative viability ([11]; first compound 0.1 µM): 0.631 | relative viability ([4]; first compound 0.001 µM): 0.339 | relative viability ([4]; first compound 0.003162 µM): 0.467 | relative viability ([4]; first compound 0.01 µM): 0.461 | relative viability ([4]; first compound 0.03162 µM): 0.446 | relative viability ([4]; first compound 0.1 µM): 0.343 | relative viability ([12]; first compound 0.001 µM): 0.577 | relative viability ([12]; first compound 0.003162 µM): 0.909 | relative viability ([12]; first compound 0.01 µM): 0.903 | relative viability ([12]; first compound 0.03162 µM): 0.621 | relative viability ([12]; first compound 0.1 µM): 0.893 | relative viability ([13]; first compound 0.001 µM): 0.886 | relative viability ([13]; first compound 0.003162 µM): 1.01 | relative viability ([13]; first compound 0.01 µM): 0.985 | relative viability ([13]; first compound 0.03162 µM): 0.948 | relative viability ([13]; first compound 0.1 µM): 0.664
